Laboratory results from patent publication EP0545103A1, “Insecticidal, acaricidal and molluscicidal 1-(substituted) thioalkylpyrroles” (priority 1991, dated 1993).

Experiments:
[1] = test system: Aphis fabae, mixed instar, bean aphid; assay: Bean aphid spray test on nasturtium; format: in vivo; parameters: key: 0: no effect; 10-25% kill; 26-35% kill; 36-45% kill; 46-55% kill; 56-65% kill; 66-75% kill; 76-85% kill; 86-99% kill; 9: 100% kill; details: 100 ppm
How it was run: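 Mortality rated on a scale 2 days after treatment of aphid-infested (100-200 per plant, infested a day earlier) ~5 cm nasturtiums sprayed to complete coverage. Spray solutions: 10,000 ppm compound in 35% acetone in water, with further water dilutions.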

[2] = test system: Spodoptera eridania, 3rd instar larvae, southern armyworm; assay: Southern armyworm systemic uptake (stem systemic) test; format: in vivo; parameters: key: 0: no effect; 10-25% kill; 26-35% kill; 36-45% kill; 46-55% kill; 56-65% kill; 66-75% kill; 76-85% kill; 86-99% kill; 9: 100% kill; details: cut stem in emulsion 3 days
[3] = test system: Heliothis virescens, 3rd instar tobacco budworm; assay: Tobacco budworm 3rd instar test, dipped cotton cotyledons; format: in vivo; parameters: key: 0: no effect; 10-25% kill; 26-35% kill; 36-45% kill; 46-55% kill; 56-65% kill; 66-75% kill; 76-85% kill; 86-99% kill; 9: 100% kill; details: mortality rating after 3 days
How it was run: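 Rating-scale scores of mortality and reduced feeding, taken 3 days after single third-instar larvae were caged on dried cotton cotyledon quarters. Cotyledons were pre-dipped in test solutions diluted with water from a 10,000 ppm stock in 35% acetone.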

[4] = test system: Empoasca abrupta, adult, western potato leafhopper; assay: Western potato leafhopper contact test, dipped limabean leaf; format: in vivo; parameters: key: 0: no effect; 10-25% kill; 26-35% kill; 36-45% kill; 46-55% kill; 56-65% kill; 66-75% kill; 76-85% kill; 86-99% kill; 9: 100% kill
How it was run: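 Sieva limabean leaf dipped 3 s in compound solution (diluted in water from 10,000 ppm stock in 35% acetone), dried, and infested with about 10 adult leafhoppers on moist filter paper. Mortality counted after 2 days and scored on a rating scale.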

Plasmopara viticola = assay: In vivo fungicidal activity, Grape Downy Mildew (GDM); details: rate 400 ppm, rating, averaged
Protocol: (§1) Test compounds are dissolved in acetone and diluted with deionized water containing about 0.05% TWEEN 20®, a polyoxyethylene sorbitan monolaurate surfactant manufactured by Atlas Chemical Industries, to give a concentration of 400 ppm. Subsequent dilutions are made with an 0.05% aqueous solution of TWEEN 20®.
(§2) Host plants are sprayed with test solution, dried and inoculated with fungi. When disease symptom development is optimal, the plants are rated for disease control according to the rating scale shown below. Each test contains inoculated treated plants, inoculated untreated plants and a reference standard.
(§3) When more than one test is run, the data are averaged.

Pythium ultimum = assay: In vitro fungicidal activity, mycelial growth inhibition on agar (Pyth); format: cell-based; details: Globisporangium ultimum, 48 h, two days
Protocol: (§4) Test compounds are dissolved in acetone, diluted with sterile, deionized water and mixed with a partially cooled, autoclaved, chemically defined agar medium. This mixture is poured into several 100mm x 15mm sterile plastic plates and allowed to solidify. The surface of each plate is inoculated with a single disc of mycelium and agar cut with an 8mm diameter cork borer from actively growing cultures of assay fungi on a chemically defined agar medium. The plates are incubated at room temperature. Growth inhibition is determined when the mycelial growth on unamended control media has reached the edge of the petri plates. The time interval varies depending on the growth rate of the fungus; two days for Pythium ultimum (pyth) and Rhizoctonia solani (Rhiz) , five days for Botrytis cinerea (Betry) and 7-10 days for Pseudocercosporella herpotrichoides (Pseudo). Each colony diameter is measured and compared with the untreated control and the percent inhibition is calculated as follows: [formula] Each test includes a solvent blank consisting of the formulation without a test compound in addition to the untreated control.
(§5) Assay fungi include the plant pathogens, Pythium ultimum (Pyth) and Rhizoctonia solani (Rhiz).
(§6) When more than one test is run the data are averaged.

[5] = test system: Erysiphe graminis, tritici; assay: In vivo fungicidal activity, Wheat Powdery Mildew (WPM); details: rate 400 ppm, rating, averaged
Protocol: as §1, §2, §3

Rhizoctonia solani = assay: In vitro fungicidal activity, mycelial growth inhibition on agar (Rhiz); format: cell-based; details: 48 h, two days
Protocol: as §4, §5, §6

Cercospora beticola = assay: In vivo fungicidal activity, Sugarbeet Cercospora (SBC); details: rating, averaged
Protocol: as §1, §2, §3

Venturia inaequalis = assay: In vivo fungicidal activity, Apple Scab (AS); details: rate 400 ppm, host plants sprayed then inoculated, rating, averaged
Protocol: as §1, §2, §3

[6] = test system: Puccinia recondita, tritici; assay: In vivo fungicidal activity, Wheat Leaf Rust (WLR); details: rate 400 ppm, rating, averaged
Protocol: as §1, §2, §3

[7] = 10 ppm, contact, rating scale 0-9
[8] = 100 ppm, contact, rating scale 0-9
[9] = spray, mortality rating after 2 days
[10] = 10 ppm, mortality rating after 2 days
[11] = 100 ppm, mortality rating after 2 days

Compound | APHIDS ([1]; rating scale 0-9) | ARMYWORM Stem Sys [2] | TOBACCO BUDWORM 3rd Instar ([3]; 10 ppm) | LEAFHOPPER Contact [4, 7] | LEAFHOPPER Contact [4, 8] | TOBACCO BUDWORM 3rd Instar ([3]; 100 ppm) | TOBACCO BUDWORM 3rd Instar ([3]; 1000 ppm) | APHIDS [1, 9] | further results
CC(C)OC(=S)SCn1c(-c2ccc(Cl)cc2)c(C#N)c(Br)c1C(F)(F)F [Example 30] | 3 (36-45% kill) | 0 |  |  |  |  |  |  | 
CN=C(NC)SCn1c(Cl)c(Cl)c(C#N)c1-c1ccc(Cl)c(Cl)c1 [Example 15] | 0 | 0 | 0 | 0 | 6 (66-75% kill) |  |  |  | 
CCOC(=S)SCn1c(Cl)c(Cl)c(C#N)c1-c1ccc(Cl)c(Cl)c1 [Example 28] | 0 | 0 | 0 | 0 | 9 (100% kill) |  |  |  | 
N#Cc1c(Cl)c(C(F)(F)F)n(CSC2=NCCN2)c1-c1ccc(Cl)cc1 [Example 4] |  | 0 | 9 (100% kill) |  |  | 9 (100% kill) | 9 (100% kill) | 0 | LEAFHOPPER Contact [4, 10]: 0; LEAFHOPPER Contact [4, 11]: 9 (100% kill)
CCOC(=S)SCn1c(-c2ccc(Cl)cc2)c(C#N)c(Br)c1C(F)(F)F [Example 29] | 0 | 0 |  | 9 (100% kill) | 9 (100% kill) |  |  |  | 
CC1(C)CN=C(SCn2c(-c3ccc(Cl)cc3)c(C#N)c(Br)c2C(F)(F)F)NC1 [Example 10] | 0 | 0 | 0 | 0 | 7 (76-85% kill) |  |  |  | 
CSCn1c(Br)c(Br)c(C#N)c1-c1ccc(C(F)(F)F)cc1 [Example 44] |  | 0 | 0 |  |  | 0 | 9 (100% kill) | 0 | LEAFHOPPER Contact [4, 10]: 0; LEAFHOPPER Contact [4, 11]: 7 (76-85% kill)
CN=C(NC)SCn1c(Br)c(Br)c(C#N)c1Br [Example 14] | 0 | 0 |  |  | 0 | 0 | 8 (86-99% kill) |  | 
CCOC(=S)SCn1c(Cl)c(C#N)c(Cl)c1-c1ccc(Cl)c(Cl)c1 [Example 37] | 0 | 0 | 0 |  | 6 (66-75% kill) | 9 (100% kill) | 9 (100% kill) |  | 
N#Cc1c(Br)c(Br)n(CSC2=NCCCN2)c1Br [Example 13] | 0 | 7 (76-85% kill) |  |  | 0 |  | 0 |  | 
CN=C(NC)SCn1c(Cl)c(C#N)c(Cl)c1-c1ccc(Cl)c(Cl)c1 [Example 19] | 0 | 0 | 0 | 0 | 9 (100% kill) | 9 (100% kill) | 9 (100% kill) |  | 
N=C(N)SCn1c(-c2ccc(Cl)c(Cl)c2)c(Br)c(C(F)(F)F)c1C(F)(F)F [Example 18] | 0 | 0 | 0 |  |  | 9 (100% kill) | 9 (100% kill) |  | 
FC(F)(F)c1c(Br)c(-c2ccc(Cl)c(Cl)c2)n(CSC2=NCCCN2)c1C(F)(F)F [Example 17] | 0 | 0 |  |  | 5 (56-65% kill) |  |  |  | 
CN(C)C(=S)SCn1c(-c2ccc(Cl)cc2)c(C#N)c(Cl)c1C(F)(F)F [Example 21] |  | 0 | 9 (100% kill) |  |  | 9 (100% kill) | 9 (100% kill) | 0 | 
N#Cc1c(Br)c(Br)n(CSc2ccccc2)c1-c1ccc(C(F)(F)F)cc1 [Example 45, 4,5-dibromo-1-[(phenylthio)methyl]-2-(alpha, alpha,alpha-trifluoro-p-tolyl)pyrrole-3-carbonitrile] |  | 0 |  |  |  | 0 | 0 |  | Disease Control GDM (Plasmopara viticola): 0 (0); inhibition at 1 ppm (Pythium ultimum; rate 1 ppm in agar): 0%; inhibition at 10 ppm (Pythium ultimum; rate 10 ppm in agar): 7%; inhibition at 25 ppm (Pythium ultimum; rate 25 ppm in agar): 4.5%; Disease Control WPM [5]: 1.0; inhibition at 1 ppm (Rhizoctonia solani; rate 1 ppm in agar): 0%; inhibition at 10 ppm (Rhizoctonia solani; rate 10 ppm in agar): 3.5%; inhibition at 25 ppm (Rhizoctonia solani; rate 25 ppm in agar): 2%; Disease Control SBC (Cercospora beticola; rate 25 ppm): 6.0; Disease Control SBC (Cercospora beticola; rate 100 ppm): 7.0; Disease Control SBC (Cercospora beticola; rate 400 ppm): 7.5; Disease Control AS (Venturia inaequalis): 0 (0); Disease Control WLR [6]: 6.0
CCOC(=S)SCn1c(-c2ccc(Cl)c(Cl)c2)c(Br)c(C(F)(F)F)c1C(F)(F)F [Example 35] | 0 | 0 |  | 9 (100% kill) | 9 (100% kill) |  |  |  | 
CN=C(NC)SCn1c(-c2ccc(Cl)cc2)c(C#N)c(Cl)c1C(F)(F)F [Example 2] |  | 0 | 9 (100% kill) |  |  | 9 (100% kill) | 9 (100% kill) | 0 | 
CSCn1c(-c2ccc(Cl)cc2)c(C#N)c(Br)c1C(F)(F)F [Example 25] |  | 0 |  |  |  |  |  | 0 | LEAFHOPPER Contact [4, 10]: 0; LEAFHOPPER Contact [4, 11]: 9 (100% kill)
N#Cc1c(Br)c(C(F)(F)F)n(CSC2=NCCS2)c1-c1ccc(Cl)cc1 [Example 16] | 8 (86-99% kill) | 4 (46-55% kill) | 9 (100% kill) | 9 (100% kill) | 9 (100% kill) | 9 (100% kill) | 9 (100% kill) |  | 
CN(C)C(=S)SCn1c(Cl)c(C#N)c(Cl)c1-c1ccc(Cl)c(Cl)c1 [Example 36] | 0 | 0 | 0 |  | 6 (66-75% kill) | 9 (100% kill) | 9 (100% kill) |  | 
N#Cc1c(Br)c(C(F)(F)F)n(CSC2=NCCN2)c1-c1ccc(Cl)cc1 [Example 7] |  | 0 |  |  |  |  |  | 0 | 
CN(C)C(=S)SCn1c(-c2ccc(Cl)cc2)c(C#N)c(Br)c1C(F)(F)F [Example 24] |  | 0 | 0 |  |  | 9 (100% kill) | 9 (100% kill) | 7 (76-85% kill) | LEAFHOPPER Contact [4, 10]: 0; LEAFHOPPER Contact [4, 11]: 9 (100% kill)
